43 compounds from patent US20240360114A1 (SIRONAX LTD., priority 2021, published 2024) can be followed below.

Molecules are shown by their SMILES.

For one test, the system named is HT-1080 cells. Put plainly: HT-1080 cell viability assay (ferroptosis induced by RSL3, Cell Titer-Glo). Particulars: Homo sapiens, HT-1080, 20 h, ferroptosis inducer RSL3, 20 hours, ferroptosis inhibitory activity, Table 2. It counts as cell-based. In a few lines: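 EC50 fitted by sigmoidal dose-response regression on luminescent viability data normalized to untreated cells. Compounds ran as a 10-point, 3-fold series from 1.1 μM alongside RSL3 for 20 hours, after overnight seeding.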
On the technique in general: In ATP-based viability assays light output follows the ATP content of the culture.
In general, EC50 refers to the concentration giving half of the maximal effect. The low end stands for greater potency, the high end for weaker potency. Consider `CC1(C)CCC(c2ccc(NCCN)cc2)CC1` [Compound 176, N1-(4-(4,4-dimethylcyclohexyl)phenyl)ethane-1,2-diamine], for which the 50% effective concentration (EC50) lay within 100 to 1000 nM. The same measure, in the same setting: next, `CCc1nc(N2C[C@@H](C)O[C@@H](C)C2)ccc1NC1CC2(CC(N)C2)C1` (stereo partly drawn) [Compound 545, N^2-(6-((2S,6R)-2,6-dimethylmorpholino)-2-ethylpyridin-3-yl)spiro[3.3]heptane-2,6-diamine]: 0.1 to 100 nM; `C[C@@H]1CN(c2ccc3cc(NC4CC5(CC(N)C5)C4)ccc3n2)C[C@H](C)O1` (stereo partly drawn) [Compound 565, N2-(2-((2S,6R)-2,6-dimethylmorpholino)quinolin-6-yl)spiro[3.3]heptane-2,6-diamine]: 0.1 to 100 nM.

The compound `CCCC(CCC)Nc1ccc(C(C)(C)C)cc1` [Compound 188, 4-(tert-butyl)-N-(heptan-4-yl)aniline] returned an EC50 of 100 to 1000 nM.

`Cc1cc(N(C)C)ccc1NC[C@H]1CC[C@H](N)CC1` [Compound 393, N^1-(((1r,4r)-4-aminocyclohexyl)methyl)-N4,N4,2-trimethylbenzene-1,4-diamine] came in with a concentration giving a half-maximal response (EC50) of 0.1 to 100 nM. On the same count and under the same terms, the value for `CN1CCN(CC(=O)N2CCC(Nc3ccc(C(C)(C)C)cc3)CC2)C(=O)C1` [Compound 245, 1-(2-(4-((4-(tert-butyl)phenyl)amino)piperidin-1-yl)-2-oxoethyl)-4-methylpiperazin-2-one] was 1000 to 10000 nM. Same read-out and setting: next, `Cc1nc(N2C3COCC2C3)ccc1NC1CC2(CC(N)C2)C1` (stereo not shown) [Compound 523, N2-(6-(3-oxa-6-azabicyclo[3.1.1]heptan-6-yl)-2-methylpyridin-3-yl)spiro[3.3]heptane-2,6-diamine]: 1000 to 10000 nM; `CC[C@@H]1CN(c2ccc(NC3CCC(N)CC3)c(C)n2)C[C@@H](CC)O1` (stereo partly drawn) [Compound 552, N1-(6-((2R,6R)-2,6-diethylmorpholino)-2-methylpyridin-3-yl)cyclohexane-1,4-diamine]: 0.1 to 100 nM; `CC(C)(C)c1ccc(N[C@H]2CC[C@@H](N)CC2)cc1` [Compound 198, (1s,4s)-N1-(4-(tert-butyl)phenyl)cyclohexane-1,4-diamine]: 100 to 1000 nM. The same measure, in the same setting: next, `CCN1CCC(Nc2ccc(N3CCC(C(F)(F)F)CC3)cc2)CC1` [Compound 5, 1-ethyl-N-(4-(4-(trifluoromethyl)piperidin-1-yl)phenyl)piperidin-4-amine]: 0.1 to 100 nM; `CC1(C)CCC(c2ccc(NC3CCNC(=O)C3)cc2)CC1` (stereo not shown) [Compound 102, 4-((4-(4,4-dimethylcyclohexyl)phenyl)amino)piperidin-2-one]: 0.1 to 100 nM; `CC1(C)CCC(c2ccc(NC3CCC(N)CC3)cc2)CC1` (single isomer, unassigned) [Compound 120A, N1-(4-(4,4-dimethylcyclohexyl)phenyl)cyclohexane-1,4-diamine]: 0.1 to 100 nM. On to `CC(C)(C)c1ccc(NC2CCC(CCCCN)CC2)cc1` (stereo not shown) [Compound 303, N-(4-(4-aminobutyl)cyclohexyl)-4-(tert-butyl)aniline], for which the half-maximal effective concentration (EC50) fell in the range of 0.1 to 100 nM.

For the compound `Cc1cc(NC2CC(C(=O)NN)C2)ccc1N1CCC(C)CC1` (stereo not shown) [Compound 489], the EC50 was 0.1 to 100 nM. On the same count and under the same terms, the value for `Cc1cc(N2CCCCC2)ccc1NC1CC2(CC(N)C2)C1` (stereo not shown) [Compound 380, N2-(2-methyl-4-(piperidin-1-yl)phenyl)spiro[3.3]heptane-2,6-diamine] was 0.1 to 100 nM. As for `CC1(C)CCN(CCNc2ccc(C(C)(C)C)cc2)CC1` [Compound 246, 4-(tert-butyl)-N-(2-(4,4-dimethylpiperidin-1-yl)ethyl)aniline], the EC50 lay in the range of 100 to 1000 nM. Same read-out and setting: the value for `Cc1nc(N2CC(C)OC(C)C2)ccc1NC1C2CC3CC1CC(N)(C3)C2` (stereo not shown) [Compound 474A, N^4-(6-(2.6-dimethylmorpholino)-2-methylpyridin-3-yl)adamantane-1,4-diamine] was 0.1 to 100 nM. `COCCCCOc1cc(NC2CCC(N)CC2)ccc1C(C)(C)C` (stereo not shown) [Compound 254, N1-(4-(tert-butyl)-3-(4-methoxybutoxy)phenyl)cyclohexane-1,4-diamine] showed an EC50 of 0.1 to 100 nM. On the same count and under the same terms, the value for `Cc1cc(NC2CC3(CC(N)C3)C2)c(C)nc1N1CC(C)OC(C)C1` (stereo not shown) [Compound 476, N2-(6-(2,6-dimethylmorpholino)-2,5-dimethylpyridin-3-yl)spiro[3.3]heptane-2,6-diamine] was 0.1 to 100 nM.

In turn, `CCc1c(C)cc(NC2CCC(N)CC2)cc1C` (stereo not shown) [Compound 281, N1-(4-ethyl-3,5-dimethylphenyl)cyclohexane-1,4-diamine] returned a 50% effective concentration (EC50) of 0.1 to 100 nM. On the same count and under the same terms, next, `CC(C)(C)c1ccc(NC2CCC(N)(C(N)=O)CC2)cc1` (stereo not shown) [Compound 212, 1-amino-4-((4-(tert-butyl)phenyl)amino)cyclohexane-1-carboxamide]: 1000 to 10000 nM; `O=C1NC[C@H](C(=O)NC2CC(Nc3ccc(C4CCCCC4)cc3)C2)N1` (stereo partly drawn) [Compound 113, (R)—N-(3-((4-cyclohexylphenyl)amino)cyclobutyl)-2-oxoimidazolidine-4-carboxamide]: 100 to 1000 nM. The same measure, in the same setting: the value for `CC1(C)CCC(c2ccc(NC3CCC(NC(N)=O)CC3)cc2)CC1` (stereo not shown) [Compound 248, 1-(4-((4-(4,4-dimethylcyclohexyl)phenyl)amino)cyclohexyl)urea] was 100 to 1000 nM; that for `Cc1cc(N2CC(C)OC(C)C2)c(C)cc1NC[C@H]1CC[C@H](N)CC1` (stereo partly shown) [Compound 453, N-(((1r,4r)-4-aminocyclohexyl)methyl)-4-(2,6-dimethylmorpholino)-2,5-dimethylaniline] was 0.1 to 100 nM; that for `CNCC1CCC(Nc2ccc(C(C)(C)C)cc2)CC1` (stereo not shown) [Compound 87, 4-(tert-butyl)-N-(4-((methylamino)methyl)cyclohexyl)aniline] was 0.1 to 100 nM.

On to `CCOCCCc1ccc(N[C@H]2CC[C@H](N)CC2)cc1` [Compound 293, (1r,4r)-N1-(4-(3-ethoxypropyl)phenyl)cyclohexane-1,4-diamine], for which the EC50 was 100 to 1000 nM. Compound `Cc1nc(C2CCC(C)(C)CC2)ccc1NC1CCC(CN)CC1` (stereo not shown) [Compound 80, N-(4-(aminomethyl)cyclohexyl)-6-(4,4-dimethylcyclohexyl)-2-methylpyridin-3-amine] came in with an EC50 of 100 to 1000 nM. The same measure, in the same setting: next, `NC1CCC(Nc2ccc(N3CCC(C(F)(F)F)CC3)cc2OCCO)CC1` (stereo not shown) [Compound 485, 2-(2-((4-aminocyclohexyl)amino)-5-(4-(trifluoromethyl)piperidin-1-yl)phenoxy) ethan-1-ol]: 0.1 to 100 nM; `CN1CCC(NC(=O)C2CCC(Nc3ccc(C4CCC(C)(C)CC4)cc3)CC2)CC1` (stereo not shown) [Compound 77, 4-((4-(4,4-dimethylcyclohexyl)phenyl)amino)-N-(1-methylpiperidin-4-yl)cyclohexane-1-carbox amide]: 0.1 to 100 nM; `CC(N)C1CCC(Nc2ccc(C(C)(C)C)cc2)CC1` (stereo not shown) [Compound 290, N-(4-(1-aminoethyl)cyclohexyl)-4-(tert-butyl)aniline]: 0.1 to 100 nM. Still for that read-out and setting: next, `Cc1ccc(NC2CCC(CN)CC2)cc1C` (stereo not shown) [Compound 282, N-(4-(aminomethyl)cyclohexyl)-3,4-dimethylaniline]: 100 to 1000 nM; `Cc1cc(NC2CC(C(N)=O)C2)ccc1N1CCC(C(F)(F)F)CC1` (stereo not shown) [Compound 437, 3-((3-methyl-4-(4-(trifluoromethyl)piperidin-1-yl)phenyl)amino)cyclobutane-1-carboxamide]: 0.1 to 100 nM. For `CC(C)C1CCN(c2ncc(NC3C4CC5CC3CC(NC(N)=O)(C5)C4)cn2)CC1` (stereo not shown) [Compound 408, 1-(4-((2-(4-isopropylpiperidin-1-yl)pyrimidin-5-yl)amino)adamantan-1-yl)urea], the concentration giving a half-maximal response (EC50) lay in the range of 0.1 to 100 nM. The same measure, in the same setting: the value for `NC1CC2(C1)CC(Nc1cnc(N3CCC(C(F)(F)F)CC3)nc1)C2` (stereo not shown) [Compound 359, N2-(2-(4-(trifluoromethyl)piperidin-1-yl)pyrimidin-5-yl)spiro[3.3]heptane-2,6-diamine] was 0.1 to 100 nM.

Still in this test, the particulars now being: Homo sapiens, HT-1080, 20 h, ferroptosis inducer RSL3, 20 hours, ferroptosis inhibitory activity, Table 3.
As for `Cc1nc(N2C[C@@H](C)N(CC(F)(F)F)[C@@H](C)C2)ccc1NC1C[C@H]2CC(N)C[C@H]2C1` (stereo partly drawn) [Compound 577, (3aR,6aS)-N2-(6-((3R,5S)-3,5-dimethyl-4-(2.2,2-trifluoroethyl)piperazin-1-yl)-2-methylpyridin-3-yl)octahydropentalene-2,5-diamine], the 50% effective concentration (EC50) fell in the range of 0.1 to 100 nM. On the same count and under the same terms, next, `Cc1nc(N2CCC3(CCOCC3)CC2)ccc1NC[C@H]1CC[C@H](N)CC1` [Compound 582, N-(((1r,4r)-4-aminocyclohexyl)methyl)-2-methyl-6-(3-oxa-9-azaspiro [5.5]undecan-9-yl)pyridin-3-amine]: 0.1 to 100 nM. Same read-out and setting: next, `Cc1nc(N2C3CCC2CC3)ccc1NC1CC2(CC(N)C2)C1` (stereo not shown) [Compound 587, N2-(6-(7-azabicyclo[2.2.1]heptan-7-yl)-2-methylpyridin-3-yl)spiro[3.3]heptane-2,6-diamine]: 100 to 1000 nM; `CC(=O)N1C(C)CN(c2ccc(NC3CC4(CC(N)C4)C3)c(C)n2)CC1C` (stereo not shown) [Compound 600]: 100 to 1000 nM.

Compound `CCC1CN(c2ccc(NC3C4CC5CC3CC(C(N)=O)(C5)C4)c(C)n2)CCO1` (stereo not shown) [Compound 590] yielded a half-maximal effective concentration (EC50) of 100 to 1000 nM. For the compound `CCCNc1ccc2cc(NC3CC4(CC(N)C4)C3)ccc2c1` (stereo not shown) [Compound 651, N^2-(6-aminospiro [3.3]heptan-2-yl)-N^6-propylnaphthalene-2,6-diamine], the EC50 lay in the range of 0.1 to 100 nM.

The same test, now with this note: Homo sapiens, ferroptosis inducer RSL3, 20 hours, ferroptosis inhibitory activity, Table 2.
`CC1(C)CCC(c2ccc(NC3CCC(CNC(N)=O)CC3)cc2)CC1` (stereo not shown) [Compound 116, 1-((4-((4-(4,4-dimethylcyclohexyl)phenyl)amino)cyclohexyl)methyl)urea] yielded an EC50 of 0.1 to 100 nM.

Take `CN1CCN(CC(=O)N2CCC(Nc3ccc(C(C)(C)C)cc3)CC2)CC1=O` [Compound 222, 4-(2-{4-[(4-tert-butylphenyl)amino]piperidin-1-yl}-2-oxoethyl)-1-methylpiperazin-2-one]: the EC50 lay in the range of 1000 to 10000 nM.

Staying with this test, now noted: ferroptosis inducer RSL3, 20 hours, ferroptosis inhibitory activity, Table 2.
On to `CCC(C)(C)c1ccc(NC2CCC(NCCO)CC2)cc1` (single isomer, unassigned) [Compound 295B, 2-((4-((4-(tert-pentyl)phenyl)amino)cyclohexyl)amino)ethan-1-ol], for which the concentration giving a half-maximal response (EC50) fell in the range of 0.1 to 100 nM.
